Tests used:
NOX1 = biological target: NOX1; set-up: method as in PMID 27273790; settings: documented values, measured using Amplex Red/HRP assay; cited from earlier work
[1] = Cell-free Amplex Red/HRP assay with 10 μM H2O2 (H2O2 scavenging / HRP inhibition); settings: H2O2 alone
Procedure: This assay allows to detect H2O2 scavengers as well as HRP inhibitors. (iii) Another assay for determining antioxidant activity analyzes serial dilutions of compounds in the presence of free radical DPPH in methanol in transparent 96-well plates (200 μl/well). Absorbance was measured at 540 nm after 15 min incubation in the dark. All scavenging assays were performed with FlexStation 3 Multi-Mode Microplate Reader (Molecular Devices).

NOX5 = biological target: NOX5; set-up: method as in PMID 27273790; settings: documented values, measured using Amplex Red/HRP assay; cited from earlier work
human NOX4 = biological target: T1, human NOX4 (Homo sapiens, UniProt Q9NPH5); experiment: WST-1 O2•- detection in tetracycline-induced NOX4 HEK293 T-REx cells; assay type: cell-based; settings: NOX4 expressing cells, concentration-response
T1 sequence (Q9NPH5 1-578): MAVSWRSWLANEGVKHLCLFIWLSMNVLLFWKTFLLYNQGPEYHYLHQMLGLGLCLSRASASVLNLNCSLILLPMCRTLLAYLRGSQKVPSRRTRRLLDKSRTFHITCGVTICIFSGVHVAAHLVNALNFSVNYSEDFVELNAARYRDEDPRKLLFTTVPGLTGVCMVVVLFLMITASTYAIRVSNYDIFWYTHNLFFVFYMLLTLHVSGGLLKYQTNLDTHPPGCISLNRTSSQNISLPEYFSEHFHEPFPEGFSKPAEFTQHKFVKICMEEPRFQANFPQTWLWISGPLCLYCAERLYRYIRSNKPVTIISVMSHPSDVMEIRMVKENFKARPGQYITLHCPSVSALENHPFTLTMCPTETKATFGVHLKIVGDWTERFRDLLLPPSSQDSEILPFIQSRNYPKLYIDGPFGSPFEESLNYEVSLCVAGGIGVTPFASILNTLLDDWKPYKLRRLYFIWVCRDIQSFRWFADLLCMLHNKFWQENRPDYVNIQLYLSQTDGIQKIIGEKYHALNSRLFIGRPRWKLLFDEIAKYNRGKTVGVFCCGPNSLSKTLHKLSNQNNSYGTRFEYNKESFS
T1 sequence (P13498 1-195 partner): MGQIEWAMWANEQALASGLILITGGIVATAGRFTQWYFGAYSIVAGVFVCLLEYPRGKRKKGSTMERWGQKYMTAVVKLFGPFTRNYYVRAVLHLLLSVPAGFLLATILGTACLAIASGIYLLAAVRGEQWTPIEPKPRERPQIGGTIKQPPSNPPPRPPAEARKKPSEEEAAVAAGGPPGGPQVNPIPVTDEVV

human NOX1 = biological target: T2, human NOX1 (Homo sapiens, UniProt Q9Y5S8); experiment: WST-1 O2•- detection in NOX1-expressing CHO cells; assay type: cell-based; settings: NOX1 expressing cells, concentration-response
T2 construct: expressed in transfected cells; host or cells: CHO
T2 sequence (Q9Y5S8 1-564): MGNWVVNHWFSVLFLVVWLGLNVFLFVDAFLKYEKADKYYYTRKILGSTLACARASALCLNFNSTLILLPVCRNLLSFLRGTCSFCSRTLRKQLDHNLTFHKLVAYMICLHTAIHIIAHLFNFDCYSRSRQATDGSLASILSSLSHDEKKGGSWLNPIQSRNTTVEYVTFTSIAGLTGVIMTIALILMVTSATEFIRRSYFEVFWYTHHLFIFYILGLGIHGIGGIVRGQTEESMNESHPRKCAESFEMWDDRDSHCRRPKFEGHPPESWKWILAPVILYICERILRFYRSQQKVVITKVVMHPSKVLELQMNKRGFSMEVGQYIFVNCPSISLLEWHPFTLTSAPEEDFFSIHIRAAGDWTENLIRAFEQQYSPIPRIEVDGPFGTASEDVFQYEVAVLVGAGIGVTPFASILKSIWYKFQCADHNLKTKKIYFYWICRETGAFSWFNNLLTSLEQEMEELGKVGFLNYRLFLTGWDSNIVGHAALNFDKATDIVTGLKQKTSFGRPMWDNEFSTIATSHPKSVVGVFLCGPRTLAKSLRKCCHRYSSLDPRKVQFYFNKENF
T2 sequence (P13498 1-195 partner): T1 sequence (P13498 1-195 partner)

CN(C)c1cccc(-c2c3c(=O)n(-c4ccccc4Cl)[nH]c3cc(=O)n2C)c1 [GKT137831]
Ki NOX1 (NOX1): nanomolar range | Effect on Amplex red/HRP signal in the presence of H2O2 alone [1]: inhibits the Amplex red/HRP signal | Ki NOX5 (NOX5): nanomolar range | Activity on NOX4 in the WST-1 assay (human NOX4): inactive | Activity on NOX1 in the WST-1 assay (human NOX1): inactive

Source: publication PMC6658998, “Pharmacological characterization of the seven human NOX isoforms and their inhibitors” (Redox Biology, 2019)
